The target of the experiment is T1, P2X7 (Homo sapiens, UniProt Q99572).
T1 sequence (Q99572 1-595): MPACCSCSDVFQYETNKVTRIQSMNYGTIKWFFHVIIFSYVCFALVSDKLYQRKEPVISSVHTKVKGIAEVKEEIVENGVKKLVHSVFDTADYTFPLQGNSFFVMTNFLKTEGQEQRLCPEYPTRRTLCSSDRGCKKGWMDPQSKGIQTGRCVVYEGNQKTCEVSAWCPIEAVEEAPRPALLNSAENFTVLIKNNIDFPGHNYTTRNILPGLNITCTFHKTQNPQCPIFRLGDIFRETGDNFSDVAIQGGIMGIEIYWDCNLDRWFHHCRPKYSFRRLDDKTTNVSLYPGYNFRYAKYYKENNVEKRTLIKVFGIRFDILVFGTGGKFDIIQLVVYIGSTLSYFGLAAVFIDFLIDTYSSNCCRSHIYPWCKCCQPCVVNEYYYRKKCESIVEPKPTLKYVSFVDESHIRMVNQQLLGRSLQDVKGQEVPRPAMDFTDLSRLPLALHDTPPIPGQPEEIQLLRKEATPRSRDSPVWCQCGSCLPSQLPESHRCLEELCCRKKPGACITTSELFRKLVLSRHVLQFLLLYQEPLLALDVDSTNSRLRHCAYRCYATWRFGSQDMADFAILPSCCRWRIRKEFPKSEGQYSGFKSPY
Nature of the experiment: YO-PRO-1 dye uptake assay in U373 cells stably expressing P2X7. In kind it is cell-based. Set-up: The complete open reading frame of human P2X7 was amplified from Incyte clone 148057; expressed in transfected cells. The conditions noted are these: dye uptake through P2X7, U373 cells, 300 μM BzATP, 5 μM YO-PRO-1, test compounds 30 nM to 3 μM. Here is the method:
Following a 24-hr exposure to DNA, cells were trypsinized and re-seeded at low density in the presence of […] G418. After incubation for 2 weeks, isolated clones were selected with cloning cylinders and replated in […] G418. Cell clones were then expanded. Clones were screened for P2X7 by applying ATP and recording the resultant current using patch clamp electrophysiology.
U373 cells stably expressing P2X7 were used to screen drugs via a dye uptake assay. Cells were plated overnight on collagen coated 96-well plates at a density of 35,000 cells per well. The following day, culture media was replaced with Mg^++ and Ca^++-free Hank's balanced salt solution and various concentrations of test compounds ranging from 30 nM to 3 μM. Cells were then allowed to incubate with test compounds at 37° C. for 20 minutes. Following this incubation period YO-PRO-1 dye (Molecular Probes, Eugene, Oreg., final concentration 5 μM) and 2′-& 3′-O-(4-Benzolybenzoyl)-Adenosine 5′-triphosphate (Sigma Chemical, St Louis, Mo., final concentration 300 μM) were added to the cells sequentially. Cells were then incubated at 37° C. for 1.5 hours. […] Fluorescence in the presence of test substances was compared to that in the absence of test substances (control).

The structures appear in SMILES notation. Counter-ions that a name gives are not always drawn. Like-named read-outs stand apart in the source and are kept apart here.

The record followed here is patent publication US7741493B2, “Heterocyclic compounds as P2X7 ion channel blockers” (Aventis Pharmaceuticals Inc., priority 2003, dated 2010).

As for `Cc1ccccc1CCC1=N[C@@H](c2cccc(F)c2)[C@@H](c2cccc(F)c2)N1` [2-[2-(2-Methylphenyl)ethyl]-cis-4,5-bis-(3-fluorophenyl)-4,5-dihydro-1H-imidazole trifluoroacetate], where the note is “read-out: IC50”, the IC50 (usually the concentration that inhibits the measured activity by half) came out at 94 nM.

`Fc1cccc([C@H]2NC(CCc3ccc(F)c(F)c3)=N[C@H]2c2cccc(F)c2)c1` [2-[2-(3,4-Difluorophenyl)ethyl]-cis-4,5-bis-(3-fluorophenyl)-4,5-dihydro-1H-imidazole]: the IC50 (read-out: IC50) came to 173 nM.

As to `Fc1ccc(CCC2=N[C@H](c3ccccc3)[C@H](c3ccccc3)N2)cc1F` [2-[2-(3,4-Difluorophenyl)ethyl]-cis-4,5-diphenyl-4,5-dihydro-1H-imidazole], where the note is “read-out: IC50”, the IC50 is 122 nM.

With `Clc1cccc(CCC2=N[C@H](c3ccccc3)[C@H](c3ccccc3)N2)c1` [2-[2-(3-Chlorophenyl)ethyl]-cis-4,5-diphenyl-4,5-dihydro-1H-imidazole trifluoroacetate], the IC50 (read-out: IC50) was 120 nM.

As to `Fc1cccc(CCC2=N[C@@H](c3cccc(F)c3)[C@@H](c3cccc(F)c3)N2)c1` [2-[2-(3-Fluorophenyl)ethyl]-cis-4,5-bis-(3-fluorophenyl)-4,5-dihydro-1H-imidazole trifluoroacetate], the IC50 (read-out: IC50) was 79 nM.

For the molecule `Fc1cccc(CCC2=N[C@@H](c3ccccc3)[C@@H](c3ccccc3)N2)c1` [2-[2-(3-Fluorophenyl)ethyl]-cis-4,5-diphenyl-4,5-dihydro-1H-imidazole trifluoroacetate], the IC50 (read-out: IC50) was determined as 31 nM.

As for `Cc1cccc(CCC2=N[C@@H](c3cccc(F)c3)[C@@H](c3cccc(F)c3)N2)c1` [2-[2-(3-Methylphenyl)ethyl]-cis-4,5-bis-(3-fluorophenyl)-4,5-dihydro-1H-imidazole trifluoroacetate], the IC50 (read-out: IC50) amounted to 385 nM.

As to `Cc1cccc(CCC2=N[C@@H](c3ccccc3)[C@@H](c3ccccc3)N2)c1` [2-[2-(3-Methylphenyl)ethyl]-cis-4,5-diphenyl-4,5-dihydro-1H-imidazole trifluoroacetate], under “read-out: IC50”, the IC50 came to 229 nM.

Turning to `Fc1ccc(CCC2=N[C@@H](c3cccc(F)c3)[C@@H](c3cccc(F)c3)N2)cc1` [2-[2-(4-Fluorophenyl)ethyl]-cis-4,5-bis-(3-fluorophenyl)-4,5-dihydro-1H-imidazole trifluoroacetate], under “read-out: IC50”, the IC50 turned out to be 572 nM.

On to `Fc1ccc(CCC2=N[C@@H](c3ccccc3)[C@@H](c3ccccc3)N2)cc1` [2-[2-(4-Fluorophenyl)ethyl]-cis-4,5-diphenyl-4,5-dihydro-1H-imidazole trifluoroacetate], for which the IC50 (read-out: IC50) turned out to be 218 nM.

Turning to `c1ccc(CCCC2=N[C@H](c3ccccc3)[C@H](c3ccccc3)N2)cc1` [2-[3-phenyl-propyl]-cis-4,5-diphenyl-4,5-dihydro-1H-imidazole trifluoroacetate], the IC50 (read-out: IC50) was 540 nM.

For the setting “IC50 (nM)”, `c1ccc(CCCCC2=N[C@H](c3ccccc3)[C@H](c3ccccc3)N2)cc1` [2-[4-phenyl-butyl]-cis-4,5-diphenyl-4,5-dihydro-1H-imidazole trifluoroacetate] registered an IC50 of 610 nM.

Take `Fc1ccc(CSC2=N[C@@H](c3ccccc3)[C@@H](c3ccccc3)N2)c(Cl)c1` [2-[(2-Chloro-4-fluorobenzyl)thio]-cis-4,5-diphenyl-4,5-dihydro-1H-imidazole hydrochloride]: under “read-out: IC50”, the IC50 was 828 nM.

Regarding `Fc1cccc([C@H]2NC(COc3ccccc3F)=N[C@H]2c2cccc(F)c2)c1` [2-[(2-Fluorophenoxy)methyl]-cis-4,5-bis-(3-fluorophenyl)-4,5-dihydro-1H-imidazole], the half-maximal inhibitory concentration (IC50) (read-out: IC50) is 834 nM.

On to `Fc1cccc([C@H]2NC(CCc3cccs3)=N[C@H]2c2cccc(F)c2)c1` [2-[(2-Thiophen-2-yl)ethyl]-cis-4,5-bis-(3-fluorophenyl)-4,5-dihydro-1H-imidazole trifluoroacetate], for which the half-maximal inhibitory concentration (IC50) (read-out: IC50) was 592 nM.

Turning to `c1ccc(COc2ccc(CSC3=N[C@@H](c4ccccc4)[C@@H](c4ccccc4)N3)cc2OCc2ccccc2)cc1` [2-[(3,4-Dibenzyloxybenzyl)thio]-cis-4,5-diphenyl-4,5-dihydro-1H-imidazole hydrochloride], the IC50 (read-out: IC50) amounted to 548 nM.

In the case of `Fc1ccc(CSC2=N[C@@H](c3ccccc3)[C@@H](c3ccccc3)N2)cc1F` [2-[(3,4-Difluorobenzyl)thio]-cis-4,5-diphenyl-4,5-dihydro-1H-imidazole hydrochloride], the 50% inhibitory concentration (IC50) (read-out: IC50) worked out at 461 nM.

Regarding `Fc1cccc(COCC2=N[C@@H](c3ccccc3)[C@@H](c3ccccc3)N2)c1` [2-[(3-Fluorobenzyloxy)methyl]-cis-4,5-diphenyl-4,5-dihydro-1H-imidazole hydrochloride], the concentration for half-maximal inhibition (IC50) (read-out: IC50) is 274 nM.

As to `Fc1cccc(OCC2=N[C@@H](c3cccc(F)c3)[C@@H](c3cccc(F)c3)N2)c1` [2-[(3-Fluorophenoxy)methyl]-cis-4,5-bis-(3-fluorophenyl)-4,5-dihydro-1H-imidazole], under “read-out: IC50”, the concentration for half-maximal inhibition (IC50) amounted to 316 nM.

Consider `Fc1cccc(OCC2=N[C@@H](c3ccccc3)[C@@H](c3ccccc3)N2)c1` [2-[(3-Fluorophenoxy)methyl]-cis-4,5-diphenyl-4,5-dihydro-1H-imidazole trifluoroacetate], for which the IC50 (read-out: IC50) came out at 224 nM.

For the molecule `COc1cccc(CSC2=N[C@@H](c3ccccc3)[C@@H](c3ccccc3)N2)c1` [2-[(3-Methoxybenzyl)thio]-cis-4,5-diphenyl-4,5-dihydro-1H-imidazole hydrochloride], the IC50 (read-out: IC50) was 987 nM.

In the case of `Cc1cccc(COCC2=N[C@@H](c3ccccc3)[C@@H](c3ccccc3)N2)c1` [2-[(3-Methylbenzyloxy)methyl]-cis-4,5-diphenyl-4,5-dihydro-1H-imidazole hydrochloride], the IC50 (read-out: IC50) stood at 415 nM.

With `Fc1ccc(OCC2=N[C@@H](c3cccc(F)c3)[C@@H](c3cccc(F)c3)N2)cc1` [2-[(4-Fluorophenoxy)methyl]-cis-4,5-bis-(3-fluorophenyl)-4,5-dihydro-1H-imidazole], where the note is “read-out: IC50”, the IC50 turned out to be 346 nM.

Turning to `Fc1ccc(OCC2=N[C@@H](c3ccccc3)[C@@H](c3ccccc3)N2)cc1` [2-[(4-Fluorophenoxy)methyl]-cis-4,5-diphenyl-4,5-dihydro-1H-imidazole trifluoroacetate], the IC50 (read-out: IC50) worked out at 401 nM.

On to `c1ccc(CSCC2=N[C@@H](c3ccccc3)[C@@H](c3ccccc3)N2)cc1` [2-[(Benzylsulfanyl)methyl]-cis-4,5-diphenyl-4,5-dihydro-1H-imidazole trifluoroacetate], for which the IC50 (read-out: IC50) worked out at 583 nM.

With `c1ccc([C@H]2NC(COC3CCCCCC3)=N[C@H]2c2ccccc2)cc1` [2-[(Cycloheptyloxy)methyl]-cis-4,5-diphenyl-4,5-dihydro-1H-imidazole trifluoroacetate], under “read-out: IC50”, the IC50 was found to be 603 nM.

Take `c1ccc([C@H]2NC(COC3CCCCC3)=N[C@H]2c2ccccc2)cc1` [2-[(Cyclohexyloxy)methyl]-cis-4,5-diphenyl-4,5-dihydro-1H-imidazole trifluoroacetate]: the IC50 (read-out: IC50) turned out to be 315 nM.

For the molecule `c1ccc([C@H]2NC(COC3CCCCCCC3)=N[C@H]2c2ccccc2)cc1` [2-[(Cyclooctyloxy)methyl]-cis-4,5-diphenyl-4,5-dihydro-1H-imidazole trifluoroacetate], the IC50 (read-out: IC50) came out at 506 nM.

`c1ccc(SCC2=N[C@@H](c3ccccc3)[C@@H](c3ccccc3)N2)cc1` [2-[(Phenylsulfanyl)methyl]-cis-4,5-diphenyl-4,5-dihydro-1H-imidazole trifluoroacetate]: the 50% inhibitory concentration (IC50) (read-out: IC50) stood at 198 nM.
